Measured values reported in US12281060B2, “Remodilins for airway remodeling and organ fibrosis” (The University of Chicago, priority 2019, dated 2025).
“Also recorded” adds a separate entry of the source.

What was measured:
[1] = tested on: serum response factor (SRF); experiment: Luciferase reporter assay of TGFβ-stimulated SRF activation; type: cell-based, human
Text: FIGS. 6A-6B. Remodilins inhibit myofibroblast transformation. Remodilin 4 inhibits TGFβ-stimulated serum response factor (SRF) activation (FIG. 6B) but not Smad signaling (FIG. 6A), as determined using luciferase reporter assays.
It is well-established that myofibroblast transformation (MFT) is a critical step in the development of pulmonafy fibrisos. […] Maintenance of Smad signaling can preserve other beneficial effects of TGFβ. As depicted in FIG. 7, four remodilins inhibited smooth muscle ACTA2 and fibronectin-1 (FN1) protein expression (markers of MFT) in dose-dependent fashion.

[2] = Plasma pharmacokinetics and tissue distribution (liver, lung, thyroid) after single oral doses; type: in vivo; conditions: after oral administration, 10 or 50 mg/kg; male C57Bl/6 mice
Protocol: Studies were performed to characterize plasma pharmacokinetics (PK) and tissue distribution (liver, lung, thyroid) of 5 potential lead candidates in male C57Bl/6 mice receiving single oral doses of 10 mg/kg or 50 mg/kg.

bleomycin-treated mice = experiment: Bleomycin-induced lung fibrosis in mice; type: in vivo; conditions: 25 mg/kg QD IP
Protocol: FIGS. 8A-8B. Treatment with remodilin 83 (25 mg/kg QD IP) reduced pulmonary fibrosis in bleomycin-treated mice. Remodilin or vehicle (DMSO) was given on days 7-21 after i.t. bleomycin (1 U/kg). Both lung hydroxyproline (FIG. 8A) and collagen levels (FIG. 8B) were lower in remodilin 83-treated mice than in control mice.
Both lung hydroxyproline (FIG. 8A) and collagen levels (FIG. 8B) were lower in remodilin 83-treated mice (systemically-administered) than in control mice.

HDM-treated Balb/c mice [3] = experiment: HDM-induced airway remodeling, MYH11 immunostain-positive airway smooth muscle area; type: in vivo; conditions: 12.5 mg/kg BID IP, HDM model, female Balb/c mice, large airways, vs 20% Solutol vehicle
Protocol: (§1) FIGS. 4A-4B. Effect of remodilin treatment (remodilin 83, 12.5 mg/kg BID IP) on airway constrictor hyperresponsiveness and remodeling induced by house dust mite (HDM) exposure in female Balb/c mice. FIG. 4A Airway constrictor hyperresponsiveness methacholine dose-response curves for mice treated with remodilin 83 or 20% Solutol (vehicle).
Furthermore, three-way analysis of variance (Ctrl vs HDM, Female vs Male, Small vs Large Airways) confirmed that the HDM influence on airway remodeling was significant at P=0.0007.
(§2) As depicted in FIG. 4A, twice-daily intraperitoneal administration of remodilins (12.5 mg/kg) was evaluated.

HDM-treated Balb/c mice [4] = experiment: HDM-induced airway constrictor hyperresponsiveness, methacholine challenge; type: in vivo; conditions: 12.5 mg/kg BID IP; HDM model, female Balb/c mice; vs 20% Solutol vehicle
Protocol: as §1
A mouse model of acute allergic asthma was used in which mice were sensitized with house dust mite (HDM) extracts. […] As depicted in FIGS. 1A and 1B, male and female Balb/c mice treated with HDM were subjected to methacholine challenge. […] The area under the curve increased by at least 3.6-fold in each sex.
as §2

[5] = days 7-21 after i.t. bleomycin, vs control mice

For `CCN(CC)S(=O)(=O)c1ccc(NC(=O)c2ccc(OC)c(I)c2)cc1` [remodilin 4, N-(4-(N,N-diethylsulfamoyl)phenyl)-3-iodo-4-methoxybenzamide], the “TGFβ-stimulated serum response factor (SRF) activation” value [1] was “inhibits”.
In the case of `COc1ccc(C(=O)Nc2ccc(S(=O)(=O)N3CCCCC3C)cc2)cc1I` (stereo not drawn) [remodilin 39, 3-Iodo-4-methoxy-N-(4-((2-methylpiperidin-1-yl)sulfonyl)phenyl) benzamide], the “accumulation in lung vs. other tissues (liver, thyroid) or plasma” value (“accumulation in lung vs. other tissues” below) [2] is reported as “selective accumulation”.
In the case of `O=C(Nc1ccc(S(=O)(=O)N2CCCC2)cc1)c1ccc(Br)c(I)c1` [remodilin 50, 4-Bromo-3-iodo-N-(4-(pyrrolidin-1-ylsulfonyl)phenyl)benzamide], the “accumulation in lung vs. other tissues” value [2] is reported as “selective accumulation”.
For `COc1ccc(C(=O)Nc2ccc(S(=O)(=O)N3CCNCC3)cc2)cc1I` [remodilin 61, 3-Iodo-4-methoxy-N-(4-(piperazin-1-ylsulfonyl)phenyl)benzamide], the “accumulation in lung vs. other tissues” value [2] was “higher concentrations in lung; also recorded: selective accumulation”.
With `CC1CN(S(=O)(=O)c2ccc(NC(=O)c3ccc(Br)c(I)c3)cc2)CCN1` (stereo not drawn) [remodilin 83, 4-Bromo-3-iodo-N-(4-((3-methylpiperazin-1-yl)sulfonyl)phenyl)benzamide] the “pulmonary fibrosis (bleomycin-induced)” value (bleomycin-treated mice; days 7-21 after i.t. bleomycin 1 U/kg, vs DMSO vehicle) was “inhibitory activity; also recorded: reduced”, the lung collagen levels (bleomycin-treated mice; [5]) was “lower” and the lung hydroxyproline (bleomycin-treated mice; [5]) was “lower”. For the same compound, the “MYH11 immunostain-positive airway smooth muscle area normalized to epithelial length” value (HDM-treated Balb/c mice [3]) was “significantly lower”, the “MYH11 immunostain-positive airway smooth muscle area normalized to epithelial length” value (HDM-treated Balb/c mice [3]; listed as Remodilin 83) was “significantly lowered” and the “accumulation in lung vs. other tissues” value [2] was “higher concentrations in lung; also recorded: selective accumulation”. For the same compound, the “development of airway constrictor hyperresponsiveness” value (HDM-treated Balb/c mice [4]) was “significantly blunted”.
With `CC1CNCCN1S(=O)(=O)c1ccc(NC(=O)c2ccc(Br)c(I)c2)cc1` (stereo not drawn) [remodilin 86, 4-Bromo-3-iodo-N-(4-((2-methylpiperazin-1-yl)sulfonyl)phenyl)benzamide] the “accumulation in lung vs. other tissues” value [2] was “higher concentrations in lung; also recorded: selective accumulation”.
